Tests used:
[1] = system: hES-derived cardiomycytes; experiment: Beating of hES-derived cardiomyocytes in response to pharmacological agonists; assay type: cell-based, human; conditions: hES2/END-2 co-culture derived cardiomyocytes; basal beating 45-60 times per minute
Protocol: (§1) END-2 cells and hES cells were cultured as described in Example 1. The hES2 cell line from ES Cell International Pte Ltd was used in all experiments. […] Co-cultures were then grown for up to 6 weeks and scored for the presence of areas of beating muscle from 5 days onwards. HepG2 cells, a carcinoma cell line resembling liver parenchymal cells (Knowles et al, (1980) Science 209:497-9), were cultured in DMEM plus 10% FCS and passaged twice weekly. […] Hanging-drop cultures of P19 EC cells were initiated and maintained in DMEM/Ham's F12 (1:1), as described previously (Mummery et al, 1991), using regular FCS while bulk production of P19 embryoid bodies in the presence or absence of END-2 conditioned medium for isolation of RNA for Northern blotting, was in the presence of charcoal-stripped FCS, as described (Mummery et al, 1991) to reduce background levels of cardiomyocyte differentiation caused by lipophilic substances possibly with retinoid-like activity in FCS. P19 clone 6 were cultured in aMEM and treated aMEM conditioned by END-2 cells. For electrophysiology, beating aggregates were dissociated using collagenase and replated on gelatine-coated coverslips.
The majority of the experiments described here were carried out using the hES2 cell line (Reubinoff et al, 2000). […] Oct-4 expression thus correlated with phenotypic characteristics of undifferentiated cells. hES cells were subcultured by transferring small clumps of undifferentiated cells either to new, mit.C-treated MEFs or confluent cultures of mit.C-treated END-2 cells. After approximately 5d under these conditions, epithelial cells became evident which over the next few days become fluid-filled cysts (FIG. 1A). […] In addition, by 10 d areas of rhythmically contracting cells in more solid aggregates become evident (FIG. 1A,3e) with a variety of overall morphologies (FIG. 1B,3e). […]

[2] = system: Brachyury T; experiment: Northern blot of Brachyury T expression in P19EC aggregates; assay type: cell-based, mouse; conditions: FIG. 10B
Protocol: as §1
RNA was isolated from P19 aggregates and poly A+RNA selected, as described previously (Mummery et al, 1990, Dev. Biol. 142: 406-413).
Background differentiation levels are reduced virtually to zero if the FCS is passed over an activated charcoal column (DCC-FCS) to remove residual retinoids; in addition, differentiation is blocked by activin (van den Eijnden-van Raaij et al, 1991, Mech. Dev. 33:157-166). […] The P19EC assay system was preferred because these cells are feeder independent for undifferentiated growth. […] Moreover, the induction of Brachyury T is blocked by the additional presence of activin (FIG. 10B), consistent with its ability to block the formation of beating muscle in aggregates. The transient expression of Brachyury T is similar to that observed during early mesoderm differentiation during gastrulation of the mouse embryo.

[3] = system: P19 EC cells; experiment: Induction of beating muscle in replated P19 EC aggregates (hanging-drop assay); assay type: cell-based, mouse; conditions: P19EC aggregates, day 10
Protocol: as §1, with “coverslips. […]” for “coverslips.”

[4] = system: P19 EC cells; conditions: END-2 conditioned medium induced differentiation; cited from earlier work

CC(C)NCC(O)c1ccc(O)c(O)c1 (centres unmarked) [isoprenaline]
beating of hES-derived cardiomyocytes in response to agonist [1]: upregulated

CNC[C@H](O)c1cccc(O)c1 [phenylephrine]
beating of hES-derived cardiomyocytes in response to agonist [1]: upregulated

C[S+](C)[O-] [DMSO, dimethyl sulphoxide]
Brachyury T (early mesoderm marker) expression ([2]; aggregation phase, first 3 days, Northern blot): induced
aggregates beating [3]: All aggregates beat

C[N+](C)(C)CCOC(N)=O [carbachol]
beating of hES-derived cardiomyocytes in response to agonist [1]: upregulated

activin: factor that blocks Brachyury T induction and the formation of beating muscle in aggregates
DMSO induced Brachyury T expression in presence of activin ([2]; P19EC aggregates): blocked
END-2 CM induced Brachyury T expression in additional presence of activin ([2]; P19EC aggregates): blocked
cardiomyocyte differentiation of P19 EC aggregates in presence of activin [4]: blocked

From patent US20140287495A1, “Methods of Inducing Differentiation of Stem Cells” (ES Cell International Pte LTD, priority 2001, published 2014)
